Where two headings read alike, the source gives them in different places.
What was measured:
[1] = Single compound bioaccessibility: LC–HRMS intensities after in vitro gastrointestinal digestion vs other extractions; type: in vitro ADME; settings: whole sample set, Dig vs Org and No_Dig
Procedure: Five grams of each sample underwent in vitro gastrointestinal digestion. The simulated digestion was performed following the three-stage model (oral, gastric, and intestinal phases) proposed by the INFOGEST consortium and described by Minekus et al. [13] with the slight modifications described in [14]. Briefly, during the oral phase (2 min), samples were mixed at 37 °C in a SW-20 water bath (Julabo GmbH, Seelbach, Germany) with an electrolyte solution to simulate salivary fluid and with amylase enzyme. Samples then underwent a gastric phase (2 h) in which they were mixed with simulated gastric fluid and pepsin enzyme. Finally, during the intestinal phase (2 h), samples from the gastric phase were mixed with simulated intestinal fluid, bile salts, and pancreatin. Solutions were adjusted to pH 3 and 7 for the gastric and intestinal phases, respectively, with a MICROpH 2002 pH-meter (CRISON, Carpi, Italy), and the digestion process was stopped by bringing the pH down to 5.4. Samples were then centrifuged at 12,500× g and 0 °C for 10 min in a Heraeus megafuge 11R centrifuge (THERMO electron, Chateau-Gontier (France), and the supernatants were filtered through a 0.45 μm CA syringe filters and immediately stored at −20 °C until further analysis. The digestion process was replicated four times for each sample. Digestion blanks in which the whole sample was replaced with 5 mL of water were also prepared in order to monitor the possible contributions of the enzymes and salts employed during in vitro digestion in the subsequent analytic determinations.
Non-digestion extraction was performed to allow a comparison with the samples digested in vitro. This employed the same temperature and time conditions and the same weight and volume ratios. Samples were extracted at 37 °C for 4 h and 2 min (the whole time for the simulated gastrointestinal digestion) with just Milli-Q water and without enzymes or simulated fluids in order to avoid food matrix degradation due to those components. After this, non-digested samples were centrifuged and filtered in the same way as the digested samples.
Characterization of polyphenols and methylxanthines from all the extract types (Org, Dig, and No_Dig) of the samples was performed with an untargeted metabolomics approach by using a rapid-resolution LC system (RRLC) 1200 series (Agilent Technologies, Waldbronn, Germany), including a binary pump, thermostatized autosampler, column oven, and a DAD detector. The RRLC system was coupled to a 6520 series electrospray ionization (ESI) source with a quadrupole time-of-flight (QTOF) mass spectrometer (Agilent Technologies). Compound separation was performed using an InfinityLab Poroshell 120EC-C18 column (2.1 × 100 mm, particle size of 2.7 μm) with a guard column (2.1 × 5 mm) (Agilent Technologies). […]

[2] = system: Caco-2 cell monolayers
[3] = in vitro; settings: human, Caco-2
[4] = system: Caco-2 cells; settings: cited from earlier work; for Papp values: in purified extracts, ref Kosińska et al.

concentration (log10-intensity) after gastrointestinal digestion in comparison with the other extraction types [1]	detection on the basolateral side [2]	Papp [3] [×10⁻⁶ cm/s]	T2 values relative to T1 values (absorption percentage) ([2]; human)	T2 values relative to T1 values (absorption percentage) [2]	apparent permeability coefficients [2]	SMILES	Papp values [4] [cm/s]	apparent permeability [4] [cm/s]
higher	not detected	–	–	–	–	Oc1cc(O)c2c(c1)O[C@H](c1ccc(O)c(O)c1)[C@H](O)[C@H]2c1c(O)cc(O)c2c1O[C@H](c1ccc(O)c(O)c1)[C@@H](O)C2 [PCB1, procyanidin B1]	–	–
decreased	–	3.28 to 30.5	1.56-1.86 fold	–	–	Oc1cc(O)c2c(c1)O[C@H](c1ccc(O)c(O)c1)[C@H](O)C2 [epicatechin]	3.38e-06	–
decreased	–	–	–	1.63-1.78 fold	3.28-30.47 × 10^−6 cm/s	O.Oc1cc(O)c2c(c1)O[C@H](c1ccc(O)c(O)c1)[C@@H](O)C2 [catechin]	4.19e-06	8e-07

SMILES	concentration (log10-intensity) after gastrointestinal digestion in comparison with the other extraction types [1]	detection on the basolateral side [2]	Papp [3] [×10⁻⁶ cm/s]	T2 values relative to T1 values (absorption percentage) ([2]; human)	T2 values relative to T1 values (absorption percentage) [2]	apparent permeability coefficients [2]	Papp values [4] [cm/s]	apparent permeability [4] [cm/s]
Cn1c(=O)c2c(ncn2C)n(C)c1=O [caffeine, reference compound]	slightly decreased	–	–	–	–	–	–	–

Reference: paper PMC7700373, “Polyphenolic and Methylxanthine Bioaccessibility of Cocoa Bean Shell Functional Biscuits: Metabolomics Approach and Intestinal Permeability through Caco-2 Cell Models” (Antioxidants, 2020)
